Target: human 11βHSD1 enzyme (Homo sapiens (Human), UniProt P28845)
Assay: biochemical
Settings: for inhibition at 30 µM: read-out: % inhibition of human 11-βHSD
Protocol: The evaluation of compounds described herein was carried out using a baculovirus expressed N terminal 6-His tagged full length human 11βHSD1 enzyme(*1). […] Inhibitors of 11βHSD1 reduce the conversion of cortisone to cortisol, which is identified by an increase in signal, in the above assay.
Compounds to be tested were dissolved in dimethyl sulphoxide (DMSO) to 10 mM and diluted further in assay buffer containing 1% DMSO to 10 fold the final assay concentration. Diluted compounds were then plated into black 384 well plates (Matrix, Hudson N.H., USA).
The assay plates were incubated for 25 minutes at 37° C. after which time the reaction was stopped by the addition of 10 μl of 0.5 mM glycerrhetinic acid plus conjugated cortisol (XL665 or D2). 10 μl of anti-cortisol Cryptate was then added and the plates sealed and incubated for 6 hours at room temperature.

human 11βHSD1 enzyme, sequence (P28845 whole entry): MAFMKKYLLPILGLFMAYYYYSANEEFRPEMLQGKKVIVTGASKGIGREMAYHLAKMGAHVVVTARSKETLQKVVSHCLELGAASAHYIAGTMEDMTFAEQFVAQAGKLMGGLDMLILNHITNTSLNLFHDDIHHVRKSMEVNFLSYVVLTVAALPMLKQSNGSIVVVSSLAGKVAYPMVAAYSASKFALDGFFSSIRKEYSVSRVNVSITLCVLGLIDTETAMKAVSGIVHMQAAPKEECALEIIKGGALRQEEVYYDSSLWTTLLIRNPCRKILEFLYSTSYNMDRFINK

| SMILES | inhibition at 30 µM [%] | IC50 [µM] |
| --- | --- | --- |
| O=C(O)C[C@@H]1CCN(c2ccc(C(=O)NC3C4CC5CC3CC(O)(C5)C4)c(SC3CCCC3)n2)C1 (stereo partly drawn) [Example 93, 2-[(3S)-1-[6-cyclopentylsulfanyl-5-[((2r,5s)-5-hydroxy-2-adamantyl)carbamoyl]pyridin-2-yl]pyrrolidin-3-yl]acetic acid] | 85 |  |
| CCCSc1nc(N2CCC[C@@H](CC(=O)O)C2)ccc1C(=O)N1CCCCC1 [Example 115, 2-[(3S)-1-[5-(piperidine-1-carbonyl)-6-propylsulfanyl-pyridin-2-yl]-3-piperidyl]acetic acid] | 93 |  |
| CC(C)CCSc1nc(N2C[C@@H]3[C@H](C2)[C@H]3C(=O)O)ccc1C(=O)N[C@H]1C2CC3CC1C[C@@](O)(C3)C2 [Example 106, (1R,5S)-3-[5-[((2r,5s)-5-hydroxy-2-adamantyl)carbamoyl]-6-(3-methylbutylsulfanyl)pyridin-2-yl]-3-azabicyclo[3.1.0]hexane-6-carboxylic acid] | 95 |  |
| CCCSc1nc(N2CCC[C@@H](CC(=O)O)C2)ccc1C(=O)N1CCC(C(F)(F)F)CC1 [Example 119, 2-[(3S)-1-[6-propylsulfanyl-5-[4-(trilfuoromethyl)piperidine-1-carbonyl]pyridin-2-yl]-3-piperidyl]acetic acid] | 99 |  |
| CSc1nc(N2CC[C@H](CC(=O)O)C2)ccc1C(=O)NC1C2CC3CC(C2)CC1C3 (stereo partly drawn) [Example 76, 2-[(3R)-1-[5-(2-adamantylcarbamoyl)-6-methylsulfanyl-pyridin-2-yl]pyrrolidin-3-yl]acetic acid] | 87 |  |
| CCCSc1nc(N2CCC[C@@H](CC(=O)O)C2)ccc1C(=O)N(C)C1CCCCC1 [compound 169, 2-[(3S)-1-[5-(cyclohexyl-methyl-carbamoyl)-6-propylsulfanyl-pyridin-2-yl]-3-piperidyl]acetic acid] | 100 |  |
| O=C(O)C[C@@H]1CCCN(c2ccc(C(=O)NC3CCCCC3)c(OCCc3cccnc3)n2)C1 [compound 138, 2-[(3S)-1-[5-(cyclohexyl-carbamoyl)-6-(2-pyridin-3-ylethoxy)pyridin-2-yl]-3-piperidyl] acetic acid] | 98 |  |
| CCSc1nc(N2CC[C@H](CC(=O)O)C2)ccc1C(=O)NC1C2CC3CC(C2)CC1C3 (stereo partly drawn) [Example 73, 2-[(3R)-1-[5-(2-adamantylcarbamoyl)-6-ethylsulfanyl-pyridin-2-yl]pyrrolidin-3-yl]acetic acid] | 92 |  |
| CCCSc1nc(Sc2ccc(OCC(=O)O)cc2)ccc1C(=O)NC1CCCCC1 [Example 19, 2-[4-[5-(cyclohexylcarbamoyl)-6-propylsulfanyl-pyridin-2-yl]sulfanylphenoxy]acetic acid] | 61 |  |
| O=C(O)C[C@@H]1CCCN(c2ccc(C(=O)N[C@H]3C4CC5CC3C[C@@](O)(C5)C4)c(SC3CCCC3)n2)C1 [Example 94] | 90 |  |
| CCCSc1nc(N2CCC[C@@H](CC(=O)O)C2)ccc1C(=O)NC12CC3CC(CC(C3)C1)C2 [Example 172, {(3S)-1-[5-(Adamantan-1-ylcarbamoyl)-6-(Propylthio)pyridin-2-yl]piperidin-3-yl}acetic acid] | 88 |  |
| CCCSc1nc(Oc2ccc(CCC(=O)O)cc2)ccc1C(=O)NC1CCCCC1 [Example 18, 3-[4-[5-(cyclohexylcarbamoyl)-6-propylsulfanyl-pyridin-2-yl]oxyphenyl]propanoic acid] | 81 |  |
| CCCSc1nc(N2CCC[C@@H](CC(=O)O)C2)ccc1C(=O)N1CCC(c2cnccn2)C1 (stereo partly drawn) [Example 116, 2-[(3S)-1-[6-propylsulfanyl-5-(3-pyrazin-2-ylpyrrolidine-1-carbonyl)pyridin-2-yl]-3-piperidyl]acetic acid] | 89 |  |
| CCCSc1nc(N2CCC[C@@H](CC(=O)O)C2)ccc1C(=O)N[C@H]1C2CC3CC1C[C@@](S(C)(=O)=O)(C3)C2 [Example 126b, 2-[(3S)-1-[5-[((2r,5s)-5-methylsulfonyl-2-adamantyl)carbamoyl]-6-propylsulfanyl-pyridin-2-yl]-3-piperidyl]acetic acid] | 99 |  |
| CCCSc1nc(N2CCC[C@H]2C(=O)O)ccc1C(=O)NC1C2CC3CC(C2)CC1C3 (stereo partly drawn) [Example 65, (2S)-1-[5-(2-adamantylcarbamoyl)-6-propylsulfanyl-pyridin-2-yl]pyrrolidine-2-carboxylic acid] | 89 |  |
| CCCSc1nc(N2CCC(C)(C(=O)O)CC2)ccc1C(=O)N[C@H]1C2CC3CC1C[C@@](O)(C3)C2 [Example 88, 1-[5-[[(2r,5s)-5-hydroxy-2-adamantyl]carbamoyl]-6-propylsulfanyl-pyridin-2-yl]-4-methyl-piperidine-4-carboxylic acid] | 89 |  |
| O=C(O)C[C@@H]1CCCN(c2ccc(C(=O)NC3CCCCC3)c(N3CCC(c4ccc(F)cc4)C3)n2)C1 (stereo partly drawn) [compound 143, 2-[(3S)-1-[5-(cyclohexylcarbamoyl)-6-[3-(4-fluorophenyl)pyrrolidin-1-yl]pyridin-2-yl]-3-piperidyl]acetic acid] | 95 |  |
| O=C(NC1CCCCC1)c1ccc(N2CCCC(C3(C(=O)O)CC3)C2)nc1SC1CCCC1 (centres unmarked) [Example 56, 1-[1-[5-(cyclohexylcarbamoyl)-6-cyclopentylsulfanyl-pyridin-2-yl]-3-piperidyl]cyclopropane-1-carboxylic acid] | 97 |  |
| CCCSc1nc(N2CCC[C@@H](CC(=O)O)C2)ccc1C(=O)NC1CCOCC1 [Example 173] | 92 |  |
| CC(C)(O)C1CCCN(C(=O)c2ccc(N3CCC[C@@H](CC(=O)O)C3)nc2SC2CCCC2)C1 (stereo partly drawn) [Example 128, 2-[(3S)-1-[6-cyclopentylsulfanyl-5-[3-(2-hydroxypropan-2-yl)piperidine-1-carbonyl]pyridin-2-yl]-3-piperidyl]acetic acid] | 91 |  |
| O=C(O)C[C@@H]1CCCN(c2ccc(C(=O)NC3CCCCC3)c(N3CCNCC3)n2)C1 [{(3S)-1-[5-(cyclohexylcarbamoyl)-6-(piperazin-1-yl)pyridin-2-yl]piperidin-3-yl}acetic acid] |  | > 30 |
| CCCSc1nc(N2CCC[C@@H](CC(=O)O)C2)ccc1C(=O)N(C)[C@H]1C2CC3CC1C[C@](O)(C3)C2 [Example 171, [(3S)-1-{5-[((2r,5s)-5-Hydroxyadamantan-2-yl)(methyl)carbamoyl]-6-(propylthio)pyridin-2-yl}piperidin-3-yl]acetic acid] | 97 |  |
| CCCSc1nc(N2CCC[C@@H](CC(=O)O)C2)ccc1C(=O)N1CCCC(C(F)(F)F)C1 (stereo partly drawn) [Example 118, 2-[(3S)-1-[6-propylsulfanyl-5-[3-(trifluoromethyl)-piperidine-1-carbonyl]pyridin-2-yl]-3-piperidyl]acetic acid] | 101 |  |
| CN(CCc1ccccc1)c1nc(N2CCC[C@@H](CC(=O)O)C2)ccc1C(=O)NC1CCCCC1 [compound 153, 2-[(3S)-1-[5-(cyclohexylcarbamoyl)-6-(methyl-phenethyl-amino)pyridin-2-yl]-3-piperidyl]acetic acid] | 92 |  |
| CCCSc1nc(N2CCCC(OC(C)C(=O)O)C2)ccc1C(=O)NC1CCCCC1 (centres unmarked) [Example 44] | 85 |  |
| O=C(O)C[C@@H]1CCCN(c2ccc(C(=O)NC3CCCCC3)c(NCCc3ccc(Cl)cc3)n2)C1 [compound 142, 2-[(3S)-1-[6-[2-(4-chlorophenyl)ethylamino]-5-(cyclohexylcarbamoyl)pyridin-2-yl]-3-piperidyl]acetic acid] | 94 |  |

— patent US8673938B2, “Chemical compounds” (priority 2006, dated 2014)
